Results taken from ChEMBL document CHEMBL1201862, “PubChem BioAssay data set” (2004).
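Test compounds were applied to cells in 96-well plates for 48 hours at 5 doses. Here, GI50 denotes the concentration required for 50% inhibition of growth.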 Activity calls are given as the source filed them. Rule as the data show it: active = GI50 up to about 1.1 µM and inactive = higher.

Columns and labels:
Assay in all cases: NCI anticancer screen, dose series, 48 h
HCT-116 = system: HCT-116
IGROV-1 = system: IGROV-1
OVCAR-5 = system: OVCAR-5
SF-295 = system: SF-295
UACC-257 = system: UACC-257
DU-145 = system: DU-145
HOP-92 = system: HOP-92
HT-29 = system: HT-29
HCC 2998 = system: HCC 2998
SR = system: SR
Malme-3M = system: Malme-3M
MDA-N = system: MDA-N
ACHN = system: ACHN
RPMI-8226 = system: RPMI-8226
COLO 205 = system: COLO 205
NCI-H226 = system: NCI-H226
MOLT-4 = system: MOLT-4
UO-31 = system: UO-31
SK-MEL-2 = system: SK-MEL-2
HL-60 = system: HL-60

SMILES | GI50 (HCT-116) | GI50 (IGROV-1) | GI50 (OVCAR-5) | GI50 (SF-295) | GI50 (UACC-257) | GI50 (DU-145) | GI50 (HOP-92) | GI50 (HT-29) | GI50 (HCC 2998) | GI50 (SR) | GI50 (Malme-3M) | GI50 (MDA-N) | GI50 (ACHN) | GI50 (RPMI-8226) | GI50 (COLO 205) | GI50 (NCI-H226) | GI50 (MOLT-4) | GI50 (UO-31) | GI50 (SK-MEL-2) | GI50 (HL-60)
O=C(CSc1nnc(SCC(=O)NN=C2CCCCC2)s1)NN=C1CCCCC1 | > 100 µM (inactive) | > 100 µM (inactive) | > 100 µM (inactive) | > 100 µM (inactive) | > 100 µM (inactive) | > 100 µM (inactive) | > 100 µM (inactive) | > 100 µM (inactive) | > 100 µM (inactive) | > 100 µM (inactive) | > 100 µM (inactive) | > 100 µM (inactive) | > 100 µM (inactive) | > 100 µM (inactive) | > 100 µM (inactive) | > 100 µM (inactive) | > 100 µM (inactive) | > 100 µM (inactive) |  | 
C[C@@H]1CC[C@@H]2[C@@H](C1)O[C@@H]([C@H](C)OCc1ccccc1)SC2(C)C | 14.7 µM (inactive) | 41.8 µM (inactive) | 16.3 µM (inactive) | 17.5 µM (inactive) | 25.5 µM (inactive) | 37.3 µM (inactive) |  | 36 µM (inactive) | 17.9 µM (inactive) | 18.2 µM (inactive) | 22.6 µM (inactive) | 23.7 µM (inactive) | 18.8 µM (inactive) | 17.4 µM (inactive) | 19.3 µM (inactive) | 18.4 µM (inactive) | 18.4 µM (inactive) | 14.5 µM (inactive) | 17.5 µM (inactive) | 
COc1ccc2c(c1)CC[C@@H]1C2CC[C@]2(C)C(=O)N(C)C(=O)CC12 (stereo partly drawn) | > 100 µM (inactive) | > 100 µM (inactive) | > 100 µM (inactive) | 62.7 µM (inactive) | > 100 µM (inactive) | > 100 µM (inactive) | > 100 µM (inactive) | > 100 µM (inactive) | > 100 µM (inactive) | 13.9 µM (inactive) | > 100 µM (inactive) | > 100 µM (inactive) | > 100 µM (inactive) |  | > 100 µM (inactive) | > 100 µM (inactive) | > 100 µM (inactive) | > 100 µM (inactive) |  | 15.7 µM (inactive)
C=C1CN=C(Nc2ccc(F)cc2F)S1 | > 100 µM (inactive) | > 100 µM (inactive) | > 100 µM (inactive) | > 100 µM (inactive) | > 100 µM (inactive) | > 100 µM (inactive) | 2.51 µM (inactive) | > 100 µM (inactive) | > 100 µM (inactive) | 36.8 µM (inactive) | > 100 µM (inactive) | > 100 µM (inactive) | > 100 µM (inactive) | 49.7 µM (inactive) | > 100 µM (inactive) |  | 31.7 µM (inactive) | > 100 µM (inactive) | > 100 µM (inactive) | 31.5 µM (inactive)
C=C(C)C1(Sc2ccc(OC)cc2)CC1 | 27.2 µM (inactive) | 30.5 µM (inactive) | 34.2 µM (inactive) | 26.9 µM (inactive) | 21.2 µM (inactive) | 57.9 µM (inactive) |  | 22.3 µM (inactive) | 14.5 µM (inactive) | 14.6 µM (inactive) | 17.8 µM (inactive) | 15.6 µM (inactive) | 33.6 µM (inactive) | 9.29 µM (inactive) | 17.1 µM (inactive) | 4.81 µM (inactive) | 13.8 µM (inactive) | 12.2 µM (inactive) | 21.3 µM (inactive) | 17 µM (inactive)
C=C(c1ccccc1)c1ccccc1-c1cc(-c2ccccc2)cc(-c2ccccc2)n1 | 65.8 µM (inactive) | > 100 µM (inactive) | > 100 µM (inactive) | > 100 µM (inactive) | > 100 µM (inactive) | > 100 µM (inactive) | > 100 µM (inactive) | 99.5 µM (inactive) | 98.6 µM (inactive) | > 100 µM (inactive) | > 100 µM (inactive) | > 100 µM (inactive) | > 100 µM (inactive) | 58.1 µM (inactive) |  | > 100 µM (inactive) | > 100 µM (inactive) | > 100 µM (inactive) |  | 34.5 µM (inactive)
O=C1C(O)=C(Cl)C(=O)c2c(O)ccc(O)c21 | > 100 µM (inactive) | > 100 µM (inactive) | > 100 µM (inactive) | > 100 µM (inactive) | > 100 µM (inactive) | > 100 µM (inactive) | > 100 µM (inactive) | > 100 µM (inactive) | > 100 µM (inactive) | > 100 µM (inactive) | 20.1 µM (inactive) | > 100 µM (inactive) |  | > 100 µM (inactive) | > 100 µM (inactive) |  | 10 µM (inactive) | > 100 µM (inactive) |  | > 100 µM (inactive)
Cn1/c(=N\N=C(\CNCCO)[C@@H](O)[C@@H]2OC(c3ccccc3)OC[C@H]2O)sc2ccccc21 (stereo partly drawn) | 16 µM (inactive) | 15.8 µM (inactive) | 18.2 µM (inactive) | 18.7 µM (inactive) | 19.6 µM (inactive) | 18.5 µM (inactive) | 11 µM (inactive) | 18.6 µM (inactive) | 11.3 µM (inactive) | 19 µM (inactive) | 17.7 µM (inactive) | 17.6 µM (inactive) | 19.9 µM (inactive) |  | 15.5 µM (inactive) |  | 14.9 µM (inactive) | 15.4 µM (inactive) | 17.7 µM (inactive) | 
COc1ccc(NC(=O)C(=O)Cc2nc3ccc(C(=O)c4ccccc4)cc3nc2O)c([N+](=O)[O-])c1 | 28.1 µM (inactive) | 17.6 µM (inactive) | > 100 µM (inactive) | 31.8 µM (inactive) | 22.6 µM (inactive) | 27.5 µM (inactive) | 10.8 µM (inactive) | 14.9 µM (inactive) | 29.8 µM (inactive) | 18.3 µM (inactive) | 53.6 µM (inactive) | 23.4 µM (inactive) | 43.6 µM (inactive) |  | 16 µM (inactive) | 11.5 µM (inactive) | 17.6 µM (inactive) | 18.2 µM (inactive) | 55.1 µM (inactive) | 
Cn1c2ccccc2c2c3c(=O)[nH][nH]c(=O)c3c3c4ccccc4n(C)c3c21 | 78.3 µM (inactive) | > 100 µM (inactive) | > 100 µM (inactive) | > 100 µM (inactive) | > 100 µM (inactive) | > 100 µM (inactive) | > 100 µM (inactive) | > 100 µM (inactive) | > 100 µM (inactive) | < 0.01 µM (active) | > 100 µM (inactive) | > 100 µM (inactive) | > 100 µM (inactive) | 13.6 µM (inactive) | > 89.1 µM (inactive) | > 100 µM (inactive) | > 100 µM (inactive) | > 100 µM (inactive) | > 100 µM (inactive) | 
CC1=C(C(=O)NNC(=O)c2ccccc2O)CC(C(=O)NNC(=O)c2ccccc2O)=C(C)N1 | 0.435 µM (active) | 0.302 µM (active) | 22.6 µM (inactive) | 0.535 µM (active) | 27.2 µM (inactive) | 0.566 µM (active) |  | 7.93 µM (inactive) | 13.7 µM (inactive) | 0.64 µM (active) | > 100 µM (inactive) | 0.336 µM (active) | 0.424 µM (active) | 0.752 µM (active) | 16.9 µM (inactive) | 1.79 µM (inactive) | 0.522 µM (active) | 0.277 µM (active) |  | 0.512 µM (active)
O=c1oc2ccccc2cc1-c1nc2ccccc2s1 | 5.08 µM (inactive) | 3.33 µM (inactive) | 23.3 µM (inactive) | 8.57 µM (inactive) | 28.1 µM (inactive) | 14.2 µM (inactive) | 6.65 µM (inactive) | 11.2 µM (inactive) | 37.2 µM (inactive) | 0.491 µM (active) | 2.2 µM (inactive) | 15.2 µM (inactive) | 3.51 µM (inactive) | 2.79 µM (inactive) | 23.2 µM (inactive) | 14.6 µM (inactive) |  | 5.83 µM (inactive) |  | > 100 µM (inactive)
CCOC(=O)C1C(c2ccc3c(c2)OCO3)c2c(n[nH]c2O)CC1(C)O (stereo not drawn) | > 100 µM (inactive) | > 100 µM (inactive) | > 100 µM (inactive) | > 100 µM (inactive) | > 100 µM (inactive) | > 100 µM (inactive) | > 100 µM (inactive) | > 100 µM (inactive) | > 100 µM (inactive) | > 100 µM (inactive) | 56.1 µM (inactive) | > 100 µM (inactive) | > 100 µM (inactive) | > 100 µM (inactive) | > 100 µM (inactive) |  | > 100 µM (inactive) | > 100 µM (inactive) | > 100 µM (inactive) | > 100 µM (inactive)
O=C([C@H](O)[C@@H](O)c1cccc(Cl)c1)C12CC3CC(CC(C3)C1)C2 | 1.86 µM (inactive) | 1.34 µM (inactive) | 3.1 µM (inactive) | 3.15 µM (inactive) | 2.21 µM (inactive) | 2.25 µM (inactive) |  | 2.37 µM (inactive) | 2.11 µM (inactive) | 2.07 µM (inactive) | 4.81 µM (inactive) | 1.93 µM (inactive) | 1.91 µM (inactive) | 0.838 µM (active) | 2.13 µM (inactive) | 4.32 µM (inactive) | 2.84 µM (inactive) | 1.9 µM (inactive) | 1.95 µM (inactive) | 0.483 µM (active)
COc1ccc(C2(O)c3ccccc3C(=O)N(C)C2(O)c2ccc(OC)cc2)cc1 (stereo not drawn) | 37.8 µM (inactive) | 28.6 µM (inactive) | > 100 µM (inactive) | 32.9 µM (inactive) | 61.9 µM (inactive) | > 100 µM (inactive) | 36.3 µM (inactive) | 28.5 µM (inactive) | 49.3 µM (inactive) | 36.3 µM (inactive) | 45.9 µM (inactive) | 17.7 µM (inactive) |  | > 100 µM (inactive) | 22.6 µM (inactive) |  | 24.7 µM (inactive) | 50.7 µM (inactive) | 43.4 µM (inactive) | 32.6 µM (inactive)
